According to US20250325563A1, “METHODS FOR TREATING METABOLIC SYNDROME” (priority 2023, published 2025):

What was measured:
HFD-fed mice [1] = assay: Visceral and subcutaneous fat volumes by MRI (Example 3); type: in vivo, C57BL/6J mice; details: 15 μg/kg i.p. twice a week for 16 weeks, n=5
Procedure: (§1) Mice were group-housed (4-5 mice per cage) on a proper temperature control of 24-26° C. with a 12 h light/dark cycle with food and water available ad libidum.
Abdominal area of animals was scanned for assessing visceral and subcutaneous fat loading by using magnetic resonance imaging system (MRI, Bruker BioSpin Group, Bruker Corporations, Germany) before experiment and then once a month during the experiment. The study procedure was conducted as follows: mice (n=5 per group) were anesthetized using isoflurane (1.5-2.5% in 1.5 l/min medical oxygen) and placed on a heated animal bed throughout the MRI procedure. Scans were performed using a 9.4T Bruker BioSpec 94/21 USR system connected to a 1H circular polarized transceiver coil and running Para Vision 6.0.1® software (Bruker BioSpin Group, Bruker Corporation, Germany). Respiration was monitored using a respiration pillow (SA Instruments Inc., Stony Brook, USA) and respiration rate was maintained at between 35-70 breaths per minute. Two orientation pilot scans were performed in order to establish the position of the animal and identify anatomical landmarks relevant for planning the subsequent scan. The final Tl-weighted Bruker: RARE sequence was performed using the following parameters: repetition time (TR) 1164 ms, echo time (TE) 6 ms, flip angle 90 degrees, number of averages 2, imaging matrix 320×320×40, spatial resolution 0.125×0.125×0.5 mm. Volumes were segmented manually by an observer blinded to the experiment using ITK-SNAP (V3.8.0). A 40× zoom was used to measure visceral and subcutaneous fat volume, and renal onset was the starting point for the fat volume analysis.

HFD-fed mice [2] = assay: Prevention of total body weight gain in high-fat diet mice (Example 2); type: in vivo, C57BL/6J mice
Procedure: Mice were group-housed (4-5 mice per cage) on a proper temperature control of 24-26° C. with a 12 h light/dark cycle with food and water available ad libidum. […] Body weight was measured once a week and the amount of food and water consumed by the animals was measured once a month.

HFD-fed mice [3] = assay: Glucose tolerance test (GTT); type: in vivo, C57BL/6J mice; details: glucose 2 g/kg i.p.; study week 16; 15 μg/kg i.p. twice a week
Procedure: as §1
(§2) For GTT, mice were fasted overnight for 10-12 h and blood glucose was measured from the tail blood using Accu-Chek Performa system glucose meter (Roche, Germany) and the baseline glucose values (0 min) were recorded. The animals were then injected intraperitoneally with glucose (2 g/kg) and after glucose injection the blood glucose was measured from tail blood according to this schedule: 15, 30, 60, 90, and 120 min.

HFD-fed mice [4] = assay: Blood metabolic markers in serum (Example 5); type: in vivo, C57BL/6J mice; details: for HDL in serum / LDL in serum / Total cholesterol in serum / Triglycerides in serum: 15 μg/kg i.p. twice a week, study week 16
Procedure: as §1
The mice were deeply anesthetized with a terminal dosage of phenobarbital (200-300 mg/kg)24 h after the last study treatment administration and the blood samples were collected from all groups of mice via cardiac puncture using a standardized protocol. Collected blood was allowed to coagulate before centrifugation at 2000×g for 20 min after which the serum was stored at −80° C. until the analysis.

NF-κB = details: Penna et al., 2009; cited from earlier work
HFD-fed mice [5] = assay: Insulin tolerance test (ITT); type: in vivo, C57BL/6J mice; details: insulin 0,5 U/kg i.p.; study week 16; 15 μg/kg i.p. twice a week
Procedure: as §1
as §2, with “Insulin tolerance test (ITT) was performed at the end of the study (study week 16). For” for “For”, “ITT,” for “GTT,”, “fasted” for “fasted overnight”, “6” for “10-12”, “insulin (0,5 U/kg; diluted from 100 U/ml (Novorapid, Novo Nordisk A/S) with saline 0.9%)” for “glucose (2 g/kg)”

HFD-fed mice [6] = type: in vivo, C57BL/6J mice; details: 15 μg/kg i.p. twice a week for 16 weeks; for Epididymal fat, absolute organ weight / Epididymal fat, normalized organ weight (organ weight/body weight) / Liver, absolute organ weight / Liver, normalized organ weight (organ weight/body weight): mean ± SEM, n=10
Procedure: as §1

[7] = Body weight of mice on daily i.p. administration for 6 days (Example 1); type: in vivo, C57BL/6J mice; details: for Mean body weight: N=10
Procedure: Two months old male C57BL/6J mice were housed (4-5 mice per cage) with food and water available ad libidum at a temperature control of 24-26° C. and a 12 h light/dark cycle. 3-4 days before the start of the study, the mice were randomized into 3 experimental groups (N=10 per group) using online randomization tool (Graph Pad, USA). Body weights of each animal were measured once a day during the entire study, their health conditions were assessed at the same time. Elocalcitol (100 μg/kg), vitamin D3 (cholecalciferol,100 μg/kg), or vehicle control were administrated intraperitoneally once a day for 6 days.

[8] = prolonged use; cited from earlier work
[9] = 15 μg/kg i.p. twice a week for 16 weeks
[10] = 100 μg/kg i.p. once a day for 6 days
[11] = admin. day 0 (administration start), 100 μg/kg i.p. once a day
[12] = admin. day 1, 100 μg/kg i.p. once a day
[13] = admin. day 2, 100 μg/kg i.p. once a day
[14] = admin. day 3, 100 μg/kg i.p. once a day
[15] = admin. day 4, 100 μg/kg i.p. once a day
[16] = admin. day 5, 100 μg/kg i.p. once a day
[17] = admin. day 6, 100 μg/kg i.p. once a day
[18] = admin. day −1, before administration start, 100 μg/kg group
[19] = admin. day −2, before administration start, 100 μg/kg group
[20] = admin. day −3, before administration start, 100 μg/kg group
[21] = admin. day −4, before administration start, 100 μg/kg group
[22] = day 7, after administration stopped on day 6
[23] = day 7, after administration stopped on day 6, 100 μg/kg i.p.
[24] = day 8, after administration stopped on day 6
[25] = day 8, after administration stopped on day 6, 100 μg/kg i.p.

## C=C1/C(=C\C=C2/CCC[C@]3(C)C([C@@H](C)C/C=C/C(O)(CC)CC)=CC[C@@H]23)C[C@@H](O)C[C@@H]1F [elocalcitol]
HFD-fed mice [1]
  Subcutaneous fat level (MRI) compared to the HFD group: significant decrease
  Visceral and subcutaneous fat relative to the LFD mice: reversed the visceral and subcutaneous fat of the HFD mice to the levels observed in the LFD mice
  Visceral fat level (MRI) compared to the HFD group: significant decrease
HFD-fed mice [2]; 15 μg/kg i.p. twice a week
  Study week at which inhibition of the HFD-induced weight gain reaches statistical significance: 7 study week
HFD-fed mice [2]; 15 μg/kg i.p. twice a week for 16 weeks, study week 16
  Lower relative weight gain compared to the vehicle treated HFD mice: 20%
HFD-fed mice [3]
  Glucose tolerance of the HFD-fed mice (glucose AUC analysis): statistically significant improvement
HFD-fed mice [4]; [9]
  Effect on cholesterol (the combined HDL and LDL): statistically significant cholesterol (the combined HDL and LDL) lowering effect
  Effect on triglyceride levels: lowered the triglyceride levels similar to the ones in the LFD group
HFD-fed mice [4]
  HDL in serum: 2.99 mmol/L
  LDL in serum: 0.73 mmol/L
  Total cholesterol in serum: 3.88 mmol/L
  Triglycerides in serum: 0.87 mmol/L
NF-κB
  NF-κB inhibition: inhibits NF-κB by blocking the nuclear translocation of the p65 subunit
HFD-fed mice [5]
  Increased insulin resistance observed in the HFD (insulin tolerance test): reverses the increased insulin resistance observed in the HFD in a statistically significant manner
HFD-fed mice [6]
  Weights of epididymal fat deposits at the study end, group comparison: significantly lower than those in the HFD and HFD+vitD groups
  Epididymal fat, absolute organ weight: 1312 mg
  Epididymal fat, normalized organ weight (organ weight/body weight): 36.29 mg/g
  Liver, absolute organ weight: 1412 mg
  Liver, normalized organ weight (organ weight/body weight): 39.45 mg/g
[7]; [10]
  Average body weight after administration was stopped on Day 6: returned to normal within two days
[7]; [11]
  Mean body weight: 21.50 g
[7]; [12]
  Weight change %: +1.4%
  Mean body weight: 21.80 g
[7]; [13]
  Weight change %: −1.4%
  Mean body weight: 21.20 g
[7]; [14]
  Weight change %: −5.58%
  Mean body weight: 20.30 g
[7]; [15]
  Weight change %: −10.7%
  Mean body weight: 19.20 g
[7]; [16]
  Weight change %: −14.42%
  Mean body weight: 18.40 g
[7]; [17]
  Weight change %: −18.6%
  Mean body weight: 17.50 g
[7]; [18]
  Mean body weight: 21.60 g
[7]; [19]
  Mean body weight: 21.70 g
[7]; [20]
  Mean body weight: 21.60 g
[7]; [21]
  Mean body weight: 21.40 g
[7]; by treatment Day 4, 100 μg/kg i.p. once a day
  Drop of average body weight: 10.7%
[7]; by treatment Day 6, 100 μg/kg i.p. once a day
  Average decrease in body weight: 18.6%
[7]; [22]
  Weight change %: −16.75%
[7]; [23]
  Mean body weight: 17.90 g
[7]; [24]
  Weight change %: −1.07%
[7]; [25]
  Mean body weight: 19.20 g
[8]
  Oral dose above which hypercalcemia may ensue: higher than 300 μg per day

## C=C1CC[C@H](O)C/C1=C/C=C1\CCC[C@]2(C)[C@@H]([C@H](C)CCCC(C)C)CC[C@@H]12 [Vitamin D3, cholecalciferol, reference compound]
[7]; [10]
  Weight loss observed: No weight loss was observed
[7]; [11]
  Mean body weight: 23.80 g
[7]; [12]
  Weight change %: −0.84%
  Mean body weight: 23.60 g
[7]; [13]
  Weight change %: +0.84%
  Mean body weight: 24.00 g
[7]; [14]
  Weight change %: 0%
  Mean body weight: 23.80 g
[7]; [15]
  Weight change %: +0.84%
  Mean body weight: 24.00 g
[7]; [16]
  Weight change %: +1.68%
  Mean body weight: 24.20 g
[7]; [17]
  Weight change %: +2.52%
  Mean body weight: 24.40 g
[7]; [18]
  Mean body weight: 23.70 g
[7]; [19]
  Mean body weight: 23.50 g
[7]; [20]
  Mean body weight: 23.50 g
[7]; [21]
  Mean body weight: 23.40 g
[7]; [22]
  Weight change %: +2.94%
[7]; [23]
  Mean body weight: 24.50 g
[7]; [24]
  Weight change %: +3.78%
[7]; [25]
  Mean body weight: 24.70 g

## C=C1/C(=C\C=C2/CCC[C@]3(C)[C@@H]([C@H](C)CCCC(C)(C)O)CC[C@@H]23)C[C@@H](O)C[C@@H]1O [1,25 (OH)2D3, 1,25-dihydroxycholecalciferol, reference compound]
HFD-fed mice [1]
  Subcutaneous fat level (MRI) compared to the HFD group: no statistically significant effect
  Visceral fat level (MRI) compared to the HFD group: no statistically significant effect
HFD-fed mice [4]; [9]
  Effect on triglyceride levels: lowered the triglyceride levels similar to the ones in the LFD group
HFD-fed mice [4]
  HDL in serum: 3.57 mmol/L
  LDL in serum: 0.82 mmol/L
  Total cholesterol in serum: 4.44 mmol/L
  Triglycerides in serum: 0.68 mmol/L
HFD-fed mice [6]
  Epididymal fat, absolute organ weight: 1874 mg
  Epididymal fat, normalized organ weight (organ weight/body weight): 49.67 mg/g
  Liver, absolute organ weight: 1374 mg
  Liver, normalized organ weight (organ weight/body weight): 36.03 mg/g
